Reference: the CheMixHub viscosity set
± gives the uncertainty stated by the source.

Test: xn = mol fraction of the nth substance listed

CC(=O)[O-].C[N+]1(CC2CO2)CCCC1=O (stereo not drawn) + O
viscosity [mPa·s], 101 kPa
Conditions	293.15 K	298.15 K	303.15 K	308.15 K	313.15 K
x1 = 0.0346	2.26 ± 0.05	1.94 ± 0.04	1.67 ± 0.03	1.46 ± 0.03	1.29 ± 0.03
x1 = 0.0775	4.27 ± 0.09	3.56 ± 0.07	3.01 ± 0.06	2.6 ± 0.05	2.28 ± 0.05
x1 = 0.1028	5.4 ± 0.11	4.45 ± 0.09	3.71 ± 0.08	3.13 ± 0.06	2.67 ± 0.06
x1 = 0.2008	7.75 ± 0.16	6.28 ± 0.13	5.18 ± 0.11	4.33 ± 0.09	3.63 ± 0.07
x1 = 0.3054	8.32 ± 0.17	6.76 ± 0.14	5.57 ± 0.12	4.67 ± 0.1	3.95 ± 0.08
x1 = 0.4045	8.17 ± 0.17	6.7 ± 0.14	5.56 ± 0.12	4.69 ± 0.1	4 ± 0.08
x1 = 0.5113	7.82 ± 0.16	6.47 ± 0.14	5.41 ± 0.11	4.6 ± 0.1	3.94 ± 0.08
x1 = 0.6049	7.47 ± 0.16	6.23 ± 0.13	5.23 ± 0.11	4.47 ± 0.1	3.85 ± 0.08
x1 = 0.7052	7.16 ± 0.15	6.01 ± 0.13	5.1 ± 0.11	4.38 ± 0.09	3.79 ± 0.08
x1 = 0.8048	6.92 ± 0.15	5.83 ± 0.13	4.97 ± 0.11	4.28 ± 0.09	3.72 ± 0.08
x1 = 0.9047	6.73 ± 0.15	5.68 ± 0.13	4.87 ± 0.11	4.21 ± 0.09	3.67 ± 0.08

CCCC[N+](CCCC)(CCCC)CCCC.[Br-] + O
298.15 K, 101 kPa
Conditions	viscosity [mPa·s]
x1 = 0.0009	0.8723
x1 = 0.0089	1.538
x1 = 0.0177	2.273

CN1CCCN2CCCN=C12 + O
100 kPa
Conditions	viscosity [mPa·s]
294.96 K, x1 = 0.5035	29.2 ± 3.5
296.8 K, x1 = 0.1982	23.1 ± 3.8
296.87 K, x1 = 0.1982	24.9 ± 3.9
298.43 K, x1 = 0.5035	23.6 ± 2.8
298.43 K, x1 = 0.798	11.2 ± 1.3
303.69 K, x1 = 0.1982	15.8 ± 1.9
308.29 K, x1 = 0.5035	14 ± 1.7
308.31 K, x1 = 0.798	7.6 ± 0.9
313.13 K, x1 = 0.1982	11.5 ± 1.4
318.19 K, x1 = 0.798	5.6 ± 0.7

C[C@H](O)C(=O)O + O
viscosity [mPa·s], 101 kPa
Conditions	x1 = 0.000625	x1 = 0.000941	x1 = 0.00124	x1 = 0.00156	x1 = 0.001899	x1 = 0.002188	x1 = 0.002523	x1 = 0.002822	x1 = 0.003145
298.15 K	0.898 ± 0.007	0.902 ± 0.007	0.906 ± 0.007	0.91 ± 0.007	0.914 ± 0.007	0.917 ± 0.007	0.922 ± 0.007	0.926 ± 0.007	0.929 ± 0.007
308.15 K	0.731 ± 0.006	0.734 ± 0.006	0.736 ± 0.006	0.738 ± 0.006	0.741 ± 0.006	0.744 ± 0.006	0.747 ± 0.006	0.75 ± 0.006	0.753 ± 0.006
318.15 K	0.601 ± 0.005	0.602 ± 0.005	0.604 ± 0.005	0.605 ± 0.005	0.607 ± 0.005	0.61 ± 0.005	0.612 ± 0.005	0.614 ± 0.005	0.616 ± 0.005

C[NH2+]CCO.O=C([O-])c1ccccc1O + O
100 kPa, x2 = 0.143
Conditions	viscosity [mPa·s]
298 K	357.8 ± 15
303 K	249.1 ± 10
313 K	128.2 ± 4.7
323 K	72.71 ± 2.5

NCCN1CCNCC1 + O
101.3 kPa
Conditions	viscosity [mPa·s]
298 K, x1 = 0.00152	0.92 ± 0.05
298 K, x1 = 0.00275	0.95 ± 0.05
298 K, x1 = 0.00774	1.11 ± 0.06
298 K, x1 = 0.0161	1.38 ± 0.07
298 K, x1 = 0.0255	1.82 ± 0.09
303 K, x1 = 0.00152	0.87 ± 0.04
303 K, x1 = 0.00275	0.89 ± 0.05
303 K, x1 = 0.00774	1 ± 0.05
303 K, x1 = 0.0161	1.25 ± 0.06
303 K, x1 = 0.0255	1.66 ± 0.08
303.2 K, x1 = 0.015	1.241 ± 0.026
303.2 K, x1 = 0.024	1.651 ± 0.035
303.2 K, x1 = 0.034	2.17 ± 0.05
303.2 K, x1 = 0.044	2.861 ± 0.063
303.2 K, x1 = 0.056	3.918 ± 0.084
303.2 K, x1 = 0.07	4.722 ± 0.1
303.2 K, x1 = 0.085	5.556 ± 0.12
313 K, x1 = 0.00152	0.74 ± 0.04
313 K, x1 = 0.00275	0.78 ± 0.04
313 K, x1 = 0.00774	0.85 ± 0.04
313 K, x1 = 0.0161	1.04 ± 0.05
313 K, x1 = 0.0255	1.32 ± 0.07
313.2 K, x1 = 0.015	1.001 ± 0.021
313.2 K, x1 = 0.024	1.312 ± 0.028
313.2 K, x1 = 0.034	1.589 ± 0.035
313.2 K, x1 = 0.044	2.074 ± 0.045
313.2 K, x1 = 0.056	2.839 ± 0.062
313.2 K, x1 = 0.07	3.558 ± 0.077
313.2 K, x1 = 0.085	4.367 ± 0.094
323 K, x1 = 0.00152	0.6 ± 0.03
323 K, x1 = 0.00275	0.61 ± 0.03
323 K, x1 = 0.00774	0.69 ± 0.04
323 K, x1 = 0.0161	0.83 ± 0.04
323 K, x1 = 0.0255	1.03 ± 0.05
